# In ChEMBL document CHEMBL4229379, “Synthesis and structure-activity relationship of novel bisindole amidines active against MDR Gram-positive and Gram-negative bacteria” (Eur J Med Chem, 2018):
# Key:
# [1] = test system: Staphylococcus epidermidis; experiment: Antibacterial activity against methicillin-sensitive Staphylococcus epidermidis ATCC 12228 after 18 hrs by CLSI broth microdilution method; format: functional; conditions: ATCC 12228, 18 h
# [2] = test system: Staphylococcus epidermidis; experiment: Antibacterial activity against methicillin-resistant Staphylococcus epidermidis 12-8 after 18 hrs by CLSI broth microdilution method; format: functional; conditions: 12-8, 18 h
# Staphylococcus aureus [3] = experiment: Antibacterial activity against methicillin-sensitive Staphylococcus aureus ATCC 29213 after 18 hrs by CLSI broth microdilution method; format: functional; conditions: ATCC 29213, 18 h
# Staphylococcus aureus [4] = experiment: Antibacterial activity against methicillin-resistant Staphylococcus aureus 12-33 after 18 hrs by CLSI broth microdilution method; format: functional; conditions: 12-33, 18 h
# Enterococcus faecalis [5] = experiment: Antibacterial activity against vancomycin-sensitive Enterococcus faecalis ATCC 29212 after 18 hrs by CLSI broth microdilution method; format: functional; conditions: ATCC 29212, 18 h
# Enterococcus faecalis [6] = experiment: Antibacterial activity against vancomycin-resistant Enterococcus faecalis 09-9 after 18 hrs by CLSI broth microdilution method; format: functional; conditions: 09-9, 18 h
# Enterococcus faecium [7] = experiment: Antibacterial activity against vancomycin-resistant Enterococcus faecium ATCC 700221 after 18 hrs by CLSI broth microdilution method; format: functional; conditions: ATCC 700221, 18 h
# Enterococcus faecium [8] = experiment: Antibacterial activity against vancomycin-sensitive Enterococcus faecium 12-3 after 18 hrs by CLSI broth microdilution method; format: functional; conditions: 12-3, 18 h
# Escherichia coli [9] = experiment: Antibacterial activity against extended-spectrum beta-lactamase deficient Escherichia coli ATCC 25922 after 18 hrs by CLSI broth microdilution method; format: functional; conditions: ATCC 25922, 18 h
# Escherichia coli [10] = experiment: Antibacterial activity against extended-spectrum beta-lactamase harboring Escherichia coli 12-15 after 18 hrs by CLSI broth microdilution method; format: functional; conditions: 12-15, 18 h
# Klebsiella pneumoniae [11] = experiment: Antibacterial activity against extended-spectrum beta-lactamase harboring Klebsiella pneumoniae ATCC 700603 after 18 hrs by CLSI broth microdilution method; format: functional; conditions: Klebsiella pneumoniae, 700603, 18 h
# Klebsiella pneumoniae [12] = experiment: Antibacterial activity against new delhi metallo-beta-lactamase-1 harboring Klebsiella pneumoniae ATCC BAA-2146 after 18 hrs by CLSI broth microdilution method; format: functional; conditions: ATCC BAA-2146, 18 h
# Klebsiella pneumoniae [13] = experiment: Antibacterial activity against extended-spectrum beta-lactamase harboring Klebsiella pneumoniae 12-8 after 18 hrs by CLSI broth microdilution method; format: functional; conditions: 12-8, 18 h
# Pseudomonas aeruginosa [14] = experiment: Antibacterial activity against Pseudomonas aeruginosa ATCC 27853 after 18 hrs by CLSI broth microdilution method; format: functional; conditions: ATCC 27853, 18 h
# [15] = test system: Acinetobacter calcoaceticus; experiment: Antibacterial activity against Acinetobacter calcoaceticus ATCC 19606 after 18 hrs by CLSI broth microdilution method; format: functional; conditions: ATCC 19606, 18 h
# Enterobacter cloacae = experiment: Antibacterial activity against Enterobacter cloacae ATCC 43560 after 18 hrs by CLSI broth microdilution method; format: functional; conditions: ATCC 43560, 18 h
# Proteus mirabilis = experiment: Antibacterial activity against Proteus mirabilis 12-6 after 18 hrs by CLSI broth microdilution method; format: functional; conditions: 12-6, 18 h
# [16] = Cytotoxicity against HEK293T cells assessed as reduction in cell viability after 48 hrs by MTS assay; format: cell-based, HEK-293T; conditions: human
# [17] = test system: Staphylococcus epidermidis; experiment: Antibacterial activity against methicillin-sensitive Staphylococcus epidermidis 12-6 after 18 hrs by CLSI broth microdilution method; format: functional; conditions: 12-6, 18 h
# Staphylococcus aureus [18] = experiment: Antibacterial activity against methicillin-resistant Staphylococcus aureus ATCC 33591 after 18 hrs by CLSI broth microdilution method; format: functional; conditions: ATCC 33591, 18 h
# Staphylococcus aureus [19] = experiment: Antibacterial activity against methicillin-sensitive Staphylococcus aureus 15 after 18 hrs by CLSI broth microdilution method; format: functional; conditions: Staphylococcus aureus, 15, 18 h
# Staphylococcus aureus [20] = experiment: Antibacterial activity against methicillin-sensitive Staphylococcus aureus 12-28 after 18 hrs by CLSI broth microdilution method; format: functional; conditions: 12-28, 18 h
# Enterococcus faecalis [21] = experiment: Antibacterial activity against vancomycin-resistant Enterococcus faecalis ATCC 51299 after 18 hrs by CLSI broth microdilution method; format: functional; conditions: ATCC 51299, 18 h
# Enterococcus faecalis [22] = experiment: Antibacterial activity against vancomycin-sensitive Enterococcus faecalis 12-5 after 18 hrs by CLSI broth microdilution method; format: functional; conditions: 12-5, 18 h
# Enterococcus faecium [23] = experiment: Antibacterial activity against vancomycin-resistant Enterococcus faecium 12-1 after 18 hrs by CLSI broth microdilution method; format: functional; conditions: 12-1, 18 h
# Escherichia coli [24] = experiment: Antibacterial activity against extended-spectrum beta-lactamase deficient Escherichia coli 1515 after 18 hrs by CLSI broth microdilution method; format: functional; conditions: Escherichia coli, 1515, 18 h
# Escherichia coli [25] = experiment: Antibacterial activity against extended-spectrum beta-lactamase deficient Escherichia coli 12-14 after 18 hrs by CLSI broth microdilution method; format: functional; conditions: 12-14, 18 h
# Klebsiella pneumoniae [26] = experiment: Antibacterial activity against extended-spectrum beta-lactamase deficient Klebsiella pneumoniae 7 after 18 hrs by CLSI broth microdilution method; format: functional; conditions: Klebsiella pneumoniae, 7, 18 h
# Klebsiella pneumoniae [27] = experiment: Antibacterial activity against extended-spectrum beta-lactamase deficient Klebsiella pneumoniae 12-4 after 18 hrs by CLSI broth microdilution method; format: functional; conditions: 12-4, 18 h
# Pseudomonas aeruginosa [28] = experiment: Antibacterial activity against Pseudomonas aeruginosa PAO1 after 18 hrs by CLSI broth microdilution method; format: functional; conditions: PAO1, 18 h
# Pseudomonas aeruginosa [29] = experiment: Antibacterial activity against Pseudomonas aeruginosa 12-16 after 18 hrs by CLSI broth microdilution method; format: functional; conditions: 12-16, 18 h
# Klebsiella aerogenes = experiment: Antibacterial activity against Enterobacter aerogenes ATCC 13048 after 18 hrs by CLSI broth microdilution method; format: functional; conditions: ATCC 13048, 18 h
# Serratia marcescens = experiment: Antibacterial activity against Serratia marcescens ATCC 21074 after 18 hrs by CLSI broth microdilution method; format: functional; conditions: ATCC 21074, 18 h
# Providencia rettgeri = experiment: Antibacterial activity against Providencia rettgeri ATCC 31052 after 18 hrs by CLSI broth microdilution method; format: functional; conditions: ATCC 31052, 18 h
# Proteus vulgaris = experiment: Antibacterial activity against Proteus vulgaris ATCC 29905 after 18 hrs by CLSI broth microdilution method; format: functional; conditions: ATCC 29905, 18 h
# [30] = test system: Stenotrophomonas maltophilia; experiment: Antibacterial activity against Stenotrophomonas maltophilia ATCC 13636 after 18 hrs by CLSI broth microdilution method; format: functional; conditions: ATCC 13636, 18 h
# Citrobacter freundii = experiment: Antibacterial activity against Citrobacter freundii ATCC 43864 after 18 hrs by CLSI broth microdilution method; format: functional; conditions: ATCC 43864, 18 h
Compound,MIC [1] [µg/mL],MIC [2] [µg/mL],MIC (Staphylococcus aureus [3]) [µg/mL],MIC (Staphylococcus aureus [4]) [µg/mL],MIC (Enterococcus faecalis [5]) [µg/mL],MIC (Enterococcus faecalis [6]) [µg/mL],MIC (Enterococcus faecium [7]) [µg/mL],MIC (Enterococcus faecium [8]) [µg/mL],MIC (Escherichia coli [9]) [µg/mL],MIC (Escherichia coli [10]) [µg/mL],MIC (Klebsiella pneumoniae [11]) [µg/mL],MIC (Klebsiella pneumoniae [12]) [µg/mL],MIC (Klebsiella pneumoniae [13]) [µg/mL],MIC (Pseudomonas aeruginosa [14]) [µg/mL],MIC [15] [µg/mL],MIC (Enterobacter cloacae) [µg/mL],MIC (Proteus mirabilis) [µg/mL],CC50 at 48 h [16] [µg/mL],MIC [17] [µg/mL],MIC (Staphylococcus aureus [18]) [µg/mL],other results
N=C(c1ccc2cc(-c3ccc(-c4cc5ccc(C(=N)N6CCCC6)cc5[nH]4)cc3)[nH]c2c1)N1CCCC1,0.25,1,2,2,4,4,4,4,4,4,16,8,8,> 128,16,8,8,4.15,0.25,2,MIC (Staphylococcus aureus [19]): 2 µg/mL; MIC (Staphylococcus aureus [20]): 2 µg/mL; MIC (Enterococcus faecalis [21]): 8 µg/mL; MIC (Enterococcus faecalis [22]): 4 µg/mL; MIC (Enterococcus faecium [23]): 4 µg/mL; MIC (Escherichia coli [24]): 4 µg/mL; MIC (Escherichia coli [25]): 4 µg/mL; MIC (Klebsiella pneumoniae [26]): 8 µg/mL; MIC (Klebsiella pneumoniae [27]): 8 µg/mL; MIC (Pseudomonas aeruginosa [28]): > 128 µg/mL; MIC (Pseudomonas aeruginosa [29]): 64 µg/mL; MIC (Klebsiella aerogenes): 8 µg/mL; MIC (Serratia marcescens): 64 µg/mL; MIC (Providencia rettgeri): 8 µg/mL; MIC (Proteus vulgaris): 8 µg/mL; MIC [30]: 16 µg/mL; MIC (Citrobacter freundii): 8 µg/mL
CCNC(=N)c1ccc2cc(-c3ccc(-c4cc5ccc(C(=N)NCC)cc5[nH]4)cc3)[nH]c2c1,0.5,1,1,1,1,2,1,2,8,16,32,32,32,8,64,16,> 64,4.1,1,1,MIC (Staphylococcus aureus [19]): 1 µg/mL; MIC (Staphylococcus aureus [20]): 1 µg/mL; MIC (Enterococcus faecalis [21]): 2 µg/mL; MIC (Enterococcus faecalis [22]): 2 µg/mL; MIC (Enterococcus faecium [23]): 1 µg/mL; MIC (Escherichia coli [24]): 32 µg/mL; MIC (Escherichia coli [25]): 16 µg/mL; MIC (Klebsiella pneumoniae [26]): 16 µg/mL; MIC (Klebsiella pneumoniae [27]): 16 µg/mL; MIC (Pseudomonas aeruginosa [28]): 32 µg/mL; MIC (Pseudomonas aeruginosa [29]): 32 µg/mL; MIC (Klebsiella aerogenes): 16 µg/mL; MIC (Serratia marcescens): 32 µg/mL; MIC (Providencia rettgeri): 32 µg/mL; MIC (Proteus vulgaris): 64 µg/mL; MIC [30]: 8 µg/mL; MIC (Citrobacter freundii): 16 µg/mL
N=C(c1ccc2cc(-c3ccc(-c4cc5ccc(C(=N)N6CCC6)cc5[nH]4)cc3)[nH]c2c1)N1CCC1,0.125,0.125,2,4,4,1,1,2,1,2,32,16,32,64,32,8,16,2.84,0.125,1,MIC (Staphylococcus aureus [19]): 2 µg/mL; MIC (Staphylococcus aureus [20]): 2 µg/mL; MIC (Enterococcus faecalis [21]): 2 µg/mL; MIC (Enterococcus faecalis [22]): 4 µg/mL; MIC (Enterococcus faecium [23]): 1 µg/mL; MIC (Escherichia coli [24]): 2 µg/mL; MIC (Escherichia coli [25]): 2 µg/mL; MIC (Klebsiella pneumoniae [26]): 16 µg/mL; MIC (Klebsiella pneumoniae [27]): 8 µg/mL; MIC (Pseudomonas aeruginosa [28]): 128 µg/mL; MIC (Pseudomonas aeruginosa [29]): 128 µg/mL; MIC (Klebsiella aerogenes): 4 µg/mL; MIC (Serratia marcescens): 32 µg/mL; MIC (Providencia rettgeri): 8 µg/mL; MIC (Proteus vulgaris): 32 µg/mL; MIC [30]: 8 µg/mL; MIC (Citrobacter freundii): 4 µg/mL
